Test results: article PMC9939733 (The Journal of Biological Chemistry, 2023)
Substitutions are numbered along the chain they refer to. Where a name gives a salt, the structure may show the parent alone.

Columns and labels:
Format in all cases: biochemical
R132H IDH1 [1] = molecular target: T1, R132H IDH1 (Homo sapiens, UniProt O75874, R132H); test: Absorbance assay (NADPH consumption), substrate turnover in the absence of 2OG; parameters: made in house; host or cells: Escherichia coli BL21(DE3) pLyS
Protocol: (§1) Compounds were dispensed using a CyBio SDW-CW CyBi-Well Simultaneous Pipettor and assay started using a ThermoFisher Multidrop Combi reagent dispenser.
(§2) Reactions were performed as technical quadruplicates.

R140Q IDH2 [2] = molecular target: T2, R140Q IDH2 (Homo sapiens, UniProt P48735, R140Q); test: as above
T2 construct: made in house; host or cells: Sf21 insect cells (cell pellets prepared at Evotec)
T2 sequence (P48735 40-452 R140Q): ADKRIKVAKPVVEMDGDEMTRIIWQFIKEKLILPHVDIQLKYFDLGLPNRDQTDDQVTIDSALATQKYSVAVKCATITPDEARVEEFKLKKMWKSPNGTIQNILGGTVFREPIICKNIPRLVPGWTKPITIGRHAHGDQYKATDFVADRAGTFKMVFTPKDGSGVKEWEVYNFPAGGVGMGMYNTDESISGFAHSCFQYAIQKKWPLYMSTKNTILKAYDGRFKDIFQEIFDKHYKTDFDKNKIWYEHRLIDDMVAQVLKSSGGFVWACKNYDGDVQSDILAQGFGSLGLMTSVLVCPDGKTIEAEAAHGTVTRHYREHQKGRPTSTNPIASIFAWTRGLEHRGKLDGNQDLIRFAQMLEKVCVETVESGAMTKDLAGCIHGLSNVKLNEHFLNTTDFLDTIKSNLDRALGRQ
Protocol: as §1, §2

R172K IDH2 [3] = molecular target: T3, R172K IDH2 (Homo sapiens, UniProt P48735, R172K); test: as above
T3 construct: made in house; host or cells: Sf21 insect cells (cell pellets prepared at Evotec)
T3 sequence (P48735 40-452 R172K): T2 sequence (P48735 40-452 R140Q) with Q101R, R133K
Protocol: as §1, §2

WT IDH1 [4] = molecular target: T4, WT IDH1 (Homo sapiens, UniProt O75874); test: Absorbance assay, substrate activity in the absence of DL-isocitrate; details: no DL-isocitrate; […] test compound, 75 μM NADP+, 2.0 nM WT IDH1; compared to DL-isocitrate
T4 construct: made in house; host or cells: Escherichia coli BL21(DE3) pLyS
Protocol: as §1, §2

WT IDH2 [5] = molecular target: T5, WT IDH2 (Homo sapiens, UniProt P48735); test: as above; details: no DL-isocitrate; […] test compound, 75 μM NADP+, 2.0 nM WT IDH2; compared to DL-isocitrate
T5 construct: made in house; host or cells: Sf21 insect cells (cell pellets prepared at Evotec)
T5 sequence (P48735 40-452): T2 sequence (P48735 40-452 R140Q) with Q101R
Protocol: as §1, §2

R140Q IDH2 [6] = molecular target: T2, R140Q IDH2; test: Absorbance assay, variant activity in the presence of equimolar 2OG (inhibition screen)
Protocol: as §1, §2

R172K IDH2 [7] = molecular target: T3, R172K IDH2; test: as above
Protocol: as §1, §2

R132H IDH1 [8] = molecular target: T1, R132H IDH1; test: as above; parameters: made in house; host or cells: Escherichia coli BL21(DE3) pLyS
Protocol: as §1, §2

WT IDH1 [9] = molecular target: T4, WT IDH1; test: Absorbance assay, WT activity in the presence of equimolar DL-isocitrate (inhibition)
Protocol: as §1, §2

WT IDH2 [10] = molecular target: T5, WT IDH2; test: as above
Protocol: as §1, §2

[11] = no 2OG, […] test compound, 0.03 μM R132H IDH1, 50 μM NADPH, 2OG = 100
[12] = no 2OG, 6.0 mM test compound, 0.03 μM R140Q IDH2, 50 μM NADPH, 2OG = 100
[13] = no 2OG, 1.0 mM test compound, 0.03 μM R172K IDH2, 50 μM NADPH, 2OG = 100
[14] = 6.0 mM 2OG and 6.0 mM test compound, 0.03 μM R140Q IDH2, 50 μM NADPH
[15] = 1.0 mM 2OG and 1.0 mM test compound, 0.03 μM R172K IDH2, 50 μM NADPH
[16] = […] 2OG and […] test compound, 0.03 μM R132H IDH1, 50 μM NADPH
[17] = […] isocitrate and […] test compound, 75 μM NADP+, 2.0 nM WT IDH1
[18] = […] isocitrate and […] test compound, 75 μM NADP+, 2.0 nM WT IDH2

T4 sequence (O75874 whole entry): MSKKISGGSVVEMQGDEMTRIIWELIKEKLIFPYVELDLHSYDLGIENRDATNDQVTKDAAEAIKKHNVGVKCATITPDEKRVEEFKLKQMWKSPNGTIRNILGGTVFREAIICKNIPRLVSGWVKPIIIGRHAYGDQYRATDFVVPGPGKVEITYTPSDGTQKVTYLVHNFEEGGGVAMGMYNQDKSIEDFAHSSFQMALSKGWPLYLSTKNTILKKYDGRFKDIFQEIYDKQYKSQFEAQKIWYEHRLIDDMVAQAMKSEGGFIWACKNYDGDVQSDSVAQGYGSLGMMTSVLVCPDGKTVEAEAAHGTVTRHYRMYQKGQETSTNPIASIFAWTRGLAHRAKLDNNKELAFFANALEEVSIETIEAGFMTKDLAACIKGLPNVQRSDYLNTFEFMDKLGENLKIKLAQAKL
T1 sequence (O75874 whole entry R132H): as the sequence (O75874 whole entry) above, with R132H counted along it

SMILES	activity [%] (%-substrate conversion after 20 min incubation) (R132H IDH1 [1]; [11])	activity [%] (%-substrate conversion after 20 min incubation) (R140Q IDH2 [2]; [12])	activity [%] (%-substrate conversion after 20 min incubation) (R172K IDH2 [3]; [13])	activity [%] (%-substrate conversion after 20 min incubation) (WT IDH1 [4])	activity [%] (%-substrate conversion after 20 min incubation) (WT IDH2 [5])	activity [%] (%-substrate conversion after 20 min incubation) (R140Q IDH2 [6]; [14])	activity [%] (%-substrate conversion after 20 min incubation) (R172K IDH2 [7]; [15])	activity [%] (%-substrate conversion after 20 min incubation) (R132H IDH1 [8]; [16])	activity [%] (%-substrate conversion after 20 min incubation) (WT IDH1 [9]; [17])	activity [%] (%-substrate conversion after 20 min incubation) (WT IDH2 [10]; [18])	activity [%] (%-substrate conversion after 20 min incubation) (R132H IDH1 [1])	activity [%] (%-substrate conversion after 20 min incubation) (R140Q IDH2 [2])	activity [%] (%-substrate conversion after 20 min incubation) (R172K IDH2 [3])	activity [%] (%-substrate conversion after 20 min incubation) (R140Q IDH2 [6])	activity [%] (%-substrate conversion after 20 min incubation) (R172K IDH2 [7])	activity [%] (%-substrate conversion after 20 min incubation) (R132H IDH1 [8])	activity [%] (%-substrate conversion after 20 min incubation) (WT IDH1 [9])	activity [%] (%-substrate conversion after 20 min incubation) (WT IDH2 [10])
CC(C(=O)O)C(C)C(=O)O (stereo not shown) [1,2-dimethylsuccinic acid]	< 10%	< 10%	< 10%	< 10%	< 10%	110 ± 3%	99 ± 5%	100 ± 2%	103 ± 1%	99 ± 1%	–	–	–	–	–	–	–	–
O=C(O)C(=O)C(=O)O [ketomalonic acid]	< 10%	< 10%	< 10%	< 10%	< 10%	–	85 ± 12%	79 ± 1%	102 ± 4%	100 ± 2%	–	–	–	–	–	–	–	–
O=C(O)CCC(O)C(=O)O (racemic) [DL-2-hydroglutaric acid]	< 10%	< 10%	< 10%	–	–	98 ± 8%	95 ± 4%	89 ± 5%	94 ± 2%	95 ± 3%	–	–	–	–	–	–	–	–
N[C@@H](CCCC(=O)O)C(=O)O [L-2-aminoadipic acid]	< 10%	< 10%	< 10%	–	–	82 ± 4%	104 ± 1%	104 ± 7%	108 ± 4%	101 ± 5%	–	–	–	–	–	–	–	–
O=C(O)CC(O)(CC(=O)O)C(=O)O [DL-citric acid]	–	–	–	–	–	–	–	–	–	–	< 10%	< 10%	< 10%	122 ± 14%	94 ± 4%	115 ± 25%	103 ± 3%	101 ± 3%
COC(=O)CC(C)C(=O)OC (racemic) [DL-dimethyl 2-methylsuccinate]	< 10%	< 10%	< 10%	–	–	116 ± 4%	91 ± 4%	104 ± 2%	103 ± 1%	100 ± 2%	–	–	–	–	–	–	–	–

Continued, in another order:

activity [%] (%-substrate conversion after 20 min incubation) (R132H IDH1 [1]; [11])	activity [%] (%-substrate conversion after 20 min incubation) (R140Q IDH2 [2]; [12])	activity [%] (%-substrate conversion after 20 min incubation) (R172K IDH2 [3]; [13])	activity [%] (%-substrate conversion after 20 min incubation) (WT IDH1 [4])	activity [%] (%-substrate conversion after 20 min incubation) (WT IDH2 [5])	activity [%] (%-substrate conversion after 20 min incubation) (R140Q IDH2 [6]; [14])	activity [%] (%-substrate conversion after 20 min incubation) (R172K IDH2 [7]; [15])	activity [%] (%-substrate conversion after 20 min incubation) (R132H IDH1 [8]; [16])	activity [%] (%-substrate conversion after 20 min incubation) (WT IDH1 [9]; [17])	activity [%] (%-substrate conversion after 20 min incubation) (WT IDH2 [10]; [18])	SMILES	activity [%] (%-substrate conversion after 20 min incubation) (R132H IDH1 [1])	activity [%] (%-substrate conversion after 20 min incubation) (R140Q IDH2 [2])	activity [%] (%-substrate conversion after 20 min incubation) (R172K IDH2 [3])	activity [%] (%-substrate conversion after 20 min incubation) (R140Q IDH2 [6])	activity [%] (%-substrate conversion after 20 min incubation) (R172K IDH2 [7])	activity [%] (%-substrate conversion after 20 min incubation) (R132H IDH1 [8])	activity [%] (%-substrate conversion after 20 min incubation) (WT IDH1 [9])	activity [%] (%-substrate conversion after 20 min incubation) (WT IDH2 [10])
< 10%	< 10%	< 10%	< 10%	< 10%	124 ± 11%	89 ± 2%	100 ± 4%	97 ± 2%	97 ± 3%	O=C(O)CCC(=O)O [succinic acid]	–	–	–	–	–	–	–	–
< 10%	< 10%	< 10%	< 10%	< 10%	110 ± 3%	96 ± 8%	106 ± 2%	100 ± 1%	98 ± 2%	O=C(O)CC(=O)C(=O)O [oxaloacetic acid]	–	–	–	–	–	–	–	–
< 10%	< 10%	< 10%	< 10%	< 10%	108 ± 7%	107 ± 3%	94 ± 8%	106 ± 4%	96 ± 5%	CCOC(=O)/C=C/C(=O)O [mono-ethyl fumarate]	–	–	–	–	–	–	–	–
< 10%	< 10%	< 10%	–	–	102 ± 5%	94 ± 5%	104 ± 2%	105 ± 4%	98 ± 3%	CC[C@H](C)C(=O)C(=O)O [α-ketoisoleucine]	–	–	–	–	–	–	–	–
< 10%	< 10%	< 10%	–	–	106 ± 6%	104 ± 2%	99 ± 2%	102 ± 2%	102 ± 4%	CC(C)CC(=O)C(=O)O [α-ketoisocaproic acid]	–	–	–	–	–	–	–	–
